# According to patent US8552208B2, “Analogs of tetramic acid” (University of Tennesseee Research Foundation, priority 2007, dated 2013):
# Several values for one entry are separate records, joined by “and”; a condition that tells them apart may be missing. Equal entries are not always repeated. Where two headings read alike, the source gives them in different places.
# Experiments:
# [1] = system: MSSA (ATCC 25293) biofilm; experiment: Calgary Biofilm Device anti-biofilm activity; format: cell-based; conditions: Staphylococcus aureus; for MBC: read-out: MBEC = Minimum Biofilm Eradication Concentration; for MIC: read-out: MBIC = Minimum Biofilm Inhibitory Concentration
# [2] = system: MRSA (ATCC 35391) biofilm; experiment: Calgary Biofilm Device anti-biofilm activity; format: cell-based, Staphylococcus aureus; conditions: Staphylococcus aureus, triplicate runs listed singly; for MIC: read-out: MBIC = Minimum Biofilm Inhibitory Concentration
# [3] = system: S. epidermidis (RP62A) biofilm; experiment: Calgary Biofilm Device anti-biofilm activity; format: cell-based; conditions: Staphylococcus epidermidis, S. epidermidis biofilm, triplicate runs listed singly; for MBC: read-out: MBEC = Minimum Biofilm Eradication Concentration; for MIC: read-out: MBIC = Minimum Biofilm Inhibitory Concentration
# [4] = system: methicillin-sensitive S. aureus ATCC 29213; experiment: Superficial skin infection model in mice; format: in vivo, Balb/c mice; conditions: topical, twice daily for three days, bacteria in lesions on day 5, placebo 8.15 +/− 0.37
# Experimental: Compounds of the invention were tested for the ability to treat skin infections utilizing an established animal model of skin infection. The superficial skin infection model used in this study was previously developed by Kugelberg et al, “Establishment of a Superficial Skin Infection Model in Mice using Staphylococcus aureus and Streptococcus pyogenes”, Antimicrob. Agents Chemother., 49(8):3435-3441 (2005).
# Superficial infections in Balb/c mice (male) were caused by first removing hair from the backs of mice with an electric shaver, followed by dry shaving with a razor and tape stripping with Tensoplast® (BSN Medical Inc., Charlotte, N.C.) adhesive bandage to remove the epidermis, followed by infection with a 5 μl bacterial suspension containing about 10^7 bacterial cells of methicillin-sensitive S. aureus ATCC 29213, a strain from a previous isolate from a human wound infection and used in other murine infection studies. After 4 hours of infection, treatment was started by administering 45-50 mg of ointment containing (i) vehicle hydrophilic petrolatum (placebo) (ii) 2% w/w mupirocin ointment (Bactroban®, GlaxoSmithKline plc., United Kingdom) in vehicle or (iii) 2% tetramic acid analogue of the invention (13b) in vehicle, (iv) 10% tetramic acid analogue of the invention (13b) in vehicle, (v) 2% tetramic acid analogue of the invention (13l) in vehicle, or (vi) 10% tetramic acid analogue of the invention (13l) in vehicle. Treatment was continued for three days with drug application twice daily at 8 hour intervals. On day 5, mice were sacrificed and the numbers of bacteria in lesions were enumerated.
# This conclusion stems from statistical analysis of the resulting means by one way ANOVA followed by Tukey's test at P<0.01 with Placebo as the control group. Therefore, the tetramic acid analogues of the invention have the potential to be used clinically for the treatment of skin infections, such as those caused by Staphylococcus aureus.
# [5] = system: Propionibacterium acnes ATCC 6919; experiment: Antibacterial activity assay (MIC, broth dilution); format: cell-based; conditions: Cutibacterium acnes
# [6] = system: Methicillin sensitive Staphylococcus aureus 8325 ATCC 35556; experiment: Antibacterial activity assay (MIC, broth dilution); format: cell-based; conditions: ATCC 35556 / MSSA, read-out: MIC, MSSA
# [7] = system: Bacillus subtilis ATCC 23857; experiment: Antibacterial activity assay (MIC, broth dilution); format: cell-based
# [8] = system: clinical isolates of MRSA (methicillin resistant S. aureus); format: cell-based
# [9] = system: Methicillin Resistant Staphylococcus aureus ATCC 33591; experiment: Antibacterial activity assay (MIC, broth dilution); format: cell-based; conditions: ATCC 33591 / MRSA, read-out: MIC, MRSA
# [10] = system: clinical isolates of MSSA (methicillin sensitive S. aureus); format: cell-based
# [11] = system: Mycobacterium tuberculosis H37 Rv; experiment: Antibacterial activity assay (MIC, broth dilution); format: cell-based; conditions: H37RV, 168 h, read-out: MIC, TB
# [12] = system: Enterococcus faecalis ATCC 33186; experiment: Antibacterial activity assay (MIC, broth dilution); format: cell-based
# [13] = system: Streptococcus pneumoniae DAW30EC; experiment: Antibacterial activity assay (MIC, broth dilution); format: cell-based; conditions: read-out: MIC, SPn
# [14] = system: Bacillus anthracis Sterne 34F2; experiment: microbe, parasite or virus in culture; format: cell-based; conditions: STERNE34F2, read-out: MIC, BA
# [15] = system: Staphylococcus aureus; experiment: Selection of single-step resistant mutants; format: cell-based; conditions: from a population of 10^10 cells
# [16] = system: Vero monkey kidney cell line (ATCC, CCL-81); experiment: Cytotoxicity assay (MTT); format: cell-based; conditions: IC50 divided by MIC against S. aureus 8325
# Experimental: (§1) Cytotoxicity assays of drugs of Formula I of Example 3 and of Formula II of Example 5 were performed using the Vero monkey kidney cell line (ATCC, CCL-81). Vero cells were grown in tissue culture flasks in Dulbecco's Modified Eagle's Medium (ATCC) supplemented with 10% fetal bovine serum and maintained in a humidified incubator (37° C., 5% CO2). Cells were removed with a cell scraper, collected by centrifugation and then suspended in fresh medium at ˜10^6 cells/mL. The cell suspensions were dispensed into 96-well microtiter plates (100 μl/well) and incubated for 18 hours at 37° C. before being used for cytotoxicity assays. Test compounds were subsequently added at concentrations ranging from 400-0.024 μg/mL and 0.1% vol/vol of Triton-X 100, which causes 100% death of cells, was included as a control. After incubating cells and compounds for 72 hours in humid air (37° C., 5% CO2) the cytopathic effects of compounds were determined using the MTT Cell Proliferation Assay (ATCC, Cat No. 30-1010K). The MTT solution reagent (10 μl) was added to each well and plates incubated at 37° C. until sufficient purple color development occurred in cells (3 hours). After detergent cell lysis, the purple formazan product was measured at 570 nm in a Synergy HT Biotek microplate reader. IC50 data was obtained from dose response curves plotted from percentage activity versus log10 concentration using Graphpad prism 5.
# [17] = Cytotoxicity assay (MTT); format: cell-based, monkey; conditions: monkey, Vero monkey kidney cells (ATCC CCL-81); Vero cells, 72 hours, MTT; read-out: IC50 (Cytotoxicity): Concentration which reduces viability of Vero kidney cells by 50%
# Experimental: as §1
# [18] = system: Streptococcus pyogenes ATCC 700294; experiment: Antibacterial activity assay (MIC, broth dilution); format: cell-based
# [19] = MSSA biofilm, triplicate runs listed singly
# [20] = MRSA biofilm, read-out: MBEC = Minimum Biofilm Eradication Concentration
compound,measurement,setting,value
"C/C(=C\C(=O)OCCCCCCCCC(=O)O)C[C@@H]1OC[C@H](C[C@@H]2O[C@H]2[C@@H](C)[C@H](C)O)[C@@H](O)[C@H]1O [Mupirocin, mupirocin, reference compound]",MBC,[1]; [19],> 400 µg/mL
same,MIC,[1]; [19],< 0.2 µg/mL
same,MBC,[2]; [20],> 400 µg/mL
same,MIC,[2]; MRSA biofilm,< 0.2 µg/mL
same,MBC,[3],> 400 µg/mL
same,MIC,[3],< 0.2 µg/mL
same,Mean Bacterial Count (log10) +/− SD,[4]; 2% ointment,5.95 +/− 0.92 log10
"CCCCCCCCCCN1C(=O)/C(=C(/C)O)C(=O)[C@@H]1CC(C)C [Compound 13b, (S,Z)-1-decyl-3-(1-hydroxyethylidene)-5-isobutylpyrrolidine-2,4-dione]",MIC,"[5]; ATCC6919, Propionibacterium acnes ATCC 6919, read-out: MIC, PA",0.8 µg/mL
same,MBC,[1]; [19],100 µg/mL
same,MIC,[1]; [19],0.8 µg/mL
same,MIC,[6]; Methicillin sensitive Staphylococcus aureus 8325 ATCC 35556,0.4 µg/mL
same,MIC,"[7]; ATCC23857, Bacillus subtilis ATCC 23857, read-out: MIC, BS",0.8 µg/mL
same,Antibiotic MIC,[8]; isolate MRSA-1,0.8 µg/mL
same,Antibiotic MIC,[8]; isolate MRSA-2,0.8 µg/mL
same,Antibiotic MIC,[8]; isolate MRSA-3,0.8 µg/mL
same,Antibiotic MIC,[8]; isolate MRSA-4,0.8 µg/mL
same,Antibiotic MIC,[8]; isolate MRSA-5,0.8 µg/mL
same,Antibiotic MIC,[8]; isolate MRSA-6,1.6 µg/mL
same,Antibiotic MIC,[8]; isolate MRSA-7,0.8 µg/mL
same,Antibiotic MIC,[8]; isolate MRSA-8,0.4 µg/mL
same,Antibiotic MIC,[8]; isolate MRSA-9,0.8 µg/mL
same,Antibiotic MIC,[8]; isolate MRSA-10,0.8 µg/mL
same,MIC,[9],0.8 µg/mL
same,MIC,[2]; MRSA biofilm,0.8 µg/mL
same,MBC,"[2]; read-out: MBEC = Minimum Biofilm Eradication Concentration, MRSA biofilm",6.25 µg/mL
same,Antibiotic MIC,[10]; isolate MSSA-11,0.8 µg/mL
same,Antibiotic MIC,[10]; isolate MSSA-12,0.4 µg/mL
same,Antibiotic MIC,[10]; isolate MSSA-13,0.4 µg/mL
same,Antibiotic MIC,[10]; isolate MSSA-14,0.4 µg/mL
same,Antibiotic MIC,[10]; isolate MSSA-15,0.4 µg/mL
same,Antibiotic MIC,[10]; isolate MSSA-16,0.4 µg/mL
same,Antibiotic MIC,[10]; isolate MSSA-17,0.4 µg/mL
same,Antibiotic MIC,[10]; isolate MSSA-18,0.4 µg/mL
same,Antibiotic MIC,[10]; isolate MSSA-19,0.4 µg/mL
same,Antibiotic MIC,[10]; isolate MSSA-20,0.8 µg/mL
same,MIC,"[11]; Mycobacterium tuberculosis H37 Rv, […]",12.5 µg/mL
same,MBC,[3],50 µg/mL
same,MIC,[3],0.4 µg/mL
same,MIC,"[12]; ATCC33186, Enterococcus faecalis ATCC 33186, read-out: MIC, EF",1.6 µg/mL
same,MIC,[13]; Streptococcus pneumoniae DAW30EC,6.25 µg/mL
same,MIC,[14],0.8 µg/mL
same,Mean Bacterial Count (log10) +/− SD,[4]; 2% ointment,8.08 +/− 0.28 log10
same,Mean Bacterial Count (log10) +/− SD,[4]; 10% ointment,6.47 +/− 0.58 log10
same,single-step mutants resistant to the compound,[15],could not be obtained
same,IC50/MIC = Selectivity (therapeutic) index,[16],36.8
same,IC50 at 72 h,[17],14.7 µg/mL
same,MIC,"[18]; ATCC700294, Streptococcus pyogenes ATCC 700294, read-out: MIC, SP",50 µg/mL
"C/C(O)=C1\C(=O)[C@H](CC(C)C)N(CC2=CCC3CC2C3(C)C)C1=O (stereo partly drawn) [Compound 13l, (5S,Z)-1-((6,6-dimethylbicyclo[3.1.1]hept-2-en-2-yl)methyl)-3-(1-hydroxyethylidene)-5-isobutylpyrrolidine-2,4-dione]",MIC,"[5]; ATCC6919, read-out: MIC, PA",0.8 µg/mL
same,MBC,[1]; [19],> 400 µg/mL
same,MIC,[1],3.12 µg/mL
same,MIC,[6]; Staphylococcus aureus,1.6 µg/mL
same,MIC,"[7]; Bacillus subtilis, ATCC23857, read-out: MIC, BS",1.6 µg/mL
same,Antibiotic MIC,[8]; isolate MRSA-1,3.12 µg/mL
same,Antibiotic MIC,[8]; isolate MRSA-2,3.12 µg/mL
same,Antibiotic MIC,[8]; isolate MRSA-3,3.12 µg/mL
same,Antibiotic MIC,[8]; isolate MRSA-4,3.12 µg/mL
same,Antibiotic MIC,[8]; isolate MRSA-5,3.12 µg/mL
same,Antibiotic MIC,[8]; isolate MRSA-6,3.12 µg/mL
same,Antibiotic MIC,[8]; isolate MRSA-7,3.12 µg/mL
same,Antibiotic MIC,[8]; isolate MRSA-8,0.4 µg/mL
same,Antibiotic MIC,[8]; isolate MRSA-9,3.12 µg/mL
same,Antibiotic MIC,[8]; isolate MRSA-10,3.12 µg/mL
same,MIC,[9],1.6 µg/mL
same,MBC,[2]; [20],> 400 µg/mL
same,MIC,[2]; MRSA biofilm,1.6 µg/mL
same,Antibiotic MIC,[10],3.2 µg/mL and 1.6 µg/mL
same,MIC,[11]; Mycobacterium tuberculosis,100 µg/mL
same,MBC,[3],> 400 µg/mL
same,MIC,[3],1.6 µg/mL
same,MIC,"[12]; Enterococcus faecalis, ATCC33186, read-out: MIC, EF",1.6 µg/mL
same,MIC,"[13]; Streptococcus pneumoniae, DAW30EC",50 µg/mL
same,MIC,[14],0.8 µg/mL
same,Mean Bacterial Count (log10) +/− SD,[4]; 2% ointment,7.67 +/− 0.21 log10
same,Mean Bacterial Count (log10) +/− SD,[4]; 10% ointment,6.51 +/− 0.67 log10
same,IC50/MIC = Selectivity (therapeutic) index,[16],22.1
same,IC50 at 72 h,[17],35.4 µg/mL
same,MIC,"[18]; Streptococcus pyogenes, ATCC700294, read-out: MIC, SP",25 µg/mL
